From patent US20240360107A1, “AN EIF4A INHIBITOR WITH A NOVEL MECHANISM OF ACTION” (ARIZONA BOARD OF REGENTS ON BEHALF OF THE UNIVERSITY OF …, priority 2021, published 2024) come the findings set out here.

In this assay the target is eIF4A (Homo sapiens, UniProt P60842). The assay is described as follows: MANT-ATP fluorescence polarization assay. The arrangement: 6xHis with TEV protease site (N, cleaved yes); made in house; host or cells: E. coli BL21-CodonPlus. The following applies: compound 200 μM or ADP 1 mM; MANT-ATP 100 nM. The assay is classed as binding. As for the experimental part: Additional biochemical testing was performed on compound 28 to investigate its mechanism of eIF4A inhibition. Initially, kinetics experiments were repeated with compound 28, and the results for compound 28 matched those of compound 1 (FIG. 5D, 4A). Upon addition of compound 28, Km and Vmax of eIF4A decreased with respect to ATP. With respect to RNA, eIF4A Km […] and Vmax remained constant. […] Fluorescence polarization (FP) assays were utilized to confirm this mechanism of inhibition by testing the ability of compound 28 to compete fluorescent substrates off eIF4A. First, an FP assay was performed with MANT-ATP, a fluorescent, non-hydrolysable ATP analog, as the substrate.
Sequence of eIF4A (P60842 whole entry): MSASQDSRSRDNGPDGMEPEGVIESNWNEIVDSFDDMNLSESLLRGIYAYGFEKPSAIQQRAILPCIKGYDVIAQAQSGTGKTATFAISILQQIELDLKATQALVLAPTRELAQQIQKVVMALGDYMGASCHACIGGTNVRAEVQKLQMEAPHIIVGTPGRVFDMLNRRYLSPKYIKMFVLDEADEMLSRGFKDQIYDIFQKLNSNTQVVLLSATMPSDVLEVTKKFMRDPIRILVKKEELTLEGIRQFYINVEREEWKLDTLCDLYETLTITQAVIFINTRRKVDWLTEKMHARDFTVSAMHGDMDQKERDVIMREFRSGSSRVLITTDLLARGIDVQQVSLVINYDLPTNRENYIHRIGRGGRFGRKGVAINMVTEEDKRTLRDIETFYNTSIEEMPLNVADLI
MANT-ATP fluorescence polarization assay. Recombinant eIF4A (15 μM) was added to a low-volume black 384 well plate (Greiner). Yeast RNA (0.25 mg/mL) was added along with compound (200 μM) or ADP (1 mM) and the plate was incubated for 20 min. MANT-ATP was added (100 nM) and the plate was incubated for 30 min before fluorescence polarization was read at 355 nm:448 nm (Ex:Em) on a SpectraMax iD5 plate reader (Molecular Devices).

For `Nc1ncnc2c1ncn2[C@@H]1O[C@H](COP(=O)(O)OP(=O)(O)O)[C@@H](O)[C@H]1O` [ADP, reference compound], the “competition of MANT-ATP off eIF4A” value was “able to compete MANT-ATP out of its binding pocket”.
